Reference: PubChem BioAssay (NCI)
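These data come from cells grown in 96-well plates and exposed to compound for 48 hours at five concentrations. Here, GI50 denotes the concentration required for 50% inhibition of growth. At the TGI there is no net growth.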

Legend:
Experiment in all cases: growth of human tumour cells (NCI), 48 h
786-0 renal = system: 786-0 renal
HL-60(TB) leukemia = system: HL-60(TB) leukemia
SF-295 CNS = system: SF-295 CNS
NCI/ADR-RES ovarian = system: NCI/ADR-RES ovarian
SF-268 CNS = system: SF-268 CNS
LOX IMVI melanoma = system: LOX IMVI melanoma
MDA-MB-435 = system: MDA-MB-435
HS 578T breast = system: HS 578T breast
NCI-H522 lung = system: NCI-H522 lung
UACC-257 melanoma = system: UACC-257 melanoma
SK-MEL-2 melanoma = system: SK-MEL-2 melanoma
OVCAR-8 ovarian = system: OVCAR-8 ovarian
OVCAR-5 ovarian = system: OVCAR-5 ovarian
UACC-62 melanoma = system: UACC-62 melanoma
SF-539 CNS = system: SF-539 CNS
HCC-2998 colon = system: HCC-2998 colon
ACHN renal = system: ACHN renal
NCI-H226 lung = system: NCI-H226 lung
OVCAR-3 ovarian = system: OVCAR-3 ovarian
CAKI-1 renal = system: CAKI-1 renal
SR leukemia = system: SR leukemia
HT29 colon = system: HT29 colon
M14 melanoma = system: M14 melanoma
BT-549 breast = system: BT-549 breast
MCF7 breast = system: MCF7 breast
HCT-15 colon = system: HCT-15 colon
A498 renal = system: A498 renal
SN12C renal = system: SN12C renal
K-562 leukemia = system: K-562 leukemia
SK-MEL-5 melanoma = system: SK-MEL-5 melanoma
SK-OV-3 ovarian = system: SK-OV-3 ovarian
T-47D breast = system: T-47D breast
EKVX NSCLC = system: EKVX NSCLC
DU-145 prostate = system: DU-145 prostate
SNB-75 CNS = system: SNB-75 CNS
SNB-19 CNS = system: SNB-19 CNS
MDA-MB-231 breast = system: MDA-MB-231 breast
RXF 393 renal = system: RXF 393 renal
TK-10 renal = system: TK-10 renal
RPMI-8226 leukemia = system: RPMI-8226 leukemia
OVCAR-4 ovarian = system: OVCAR-4 ovarian
MALME-3M melanoma = system: MALME-3M melanoma
HOP-92 NSCLC = system: HOP-92 NSCLC
CCRF-CEM leukemia = system: CCRF-CEM leukemia
UO-31 renal = system: UO-31 renal
NCI-H460 lung = system: NCI-H460 lung
A549 NSCLC = system: A549 NSCLC
SW-620 colon = system: SW-620 colon
KM12 colon = system: KM12 colon
HCT-116 colon = system: HCT-116 colon
U251 CNS = system: U251 CNS
MOLT-4 leukemia = system: MOLT-4 leukemia
PC-3 prostate = system: PC-3 prostate
IGROV1 ovarian = system: IGROV1 ovarian
HOP-62 NSCLC = system: HOP-62 NSCLC
SK-MEL-28 melanoma = system: SK-MEL-28 melanoma
COLO 205 colon = system: COLO 205 colon

CS(=O)(=O)c1nccc(-c2c(-c3ccc(F)c(OCCc4ccccc4)c3)nc3sccn23)n1
GI50 (786-0 renal): 16.5 µM | TGI (786-0 renal): 30.8 µM | GI50 (HL-60(TB) leukemia): 5.17 µM | TGI (HL-60(TB) leukemia): 22.2 µM | GI50 (SF-295 CNS): 18.5 µM | TGI (SF-295 CNS): 33.3 µM | GI50 (NCI/ADR-RES ovarian): 16.8 µM | TGI (NCI/ADR-RES ovarian): 34.3 µM | GI50 (SF-268 CNS): 16.4 µM | TGI (SF-268 CNS): 33.1 µM | GI50 (LOX IMVI melanoma): 14.9 µM | TGI (LOX IMVI melanoma): 31.8 µM | GI50 (MDA-MB-435): 16.7 µM | TGI (MDA-MB-435): 31 µM | GI50 (HS 578T breast): 17.2 µM | TGI (HS 578T breast): 42.9 µM | GI50 (NCI-H522 lung): 13.5 µM | TGI (NCI-H522 lung): 30.7 µM | GI50 (UACC-257 melanoma): 15 µM | TGI (UACC-257 melanoma): 29.6 µM | GI50 (SK-MEL-2 melanoma): 15.8 µM | TGI (SK-MEL-2 melanoma): 30.5 µM | GI50 (OVCAR-8 ovarian): 16.7 µM | TGI (OVCAR-8 ovarian): 33.2 µM | GI50 (OVCAR-5 ovarian): 19.2 µM | TGI (OVCAR-5 ovarian): 44.8 µM | GI50 (UACC-62 melanoma): 17.4 µM | TGI (UACC-62 melanoma): 36.7 µM | GI50 (SF-539 CNS): 16.3 µM | TGI (SF-539 CNS): 30.3 µM | GI50 (HCC-2998 colon): 15.4 µM | TGI (HCC-2998 colon): 30.2 µM | GI50 (ACHN renal): 15.4 µM | TGI (ACHN renal): 28.7 µM | GI50 (NCI-H226 lung): 14.1 µM | TGI (NCI-H226 lung): 27.8 µM | GI50 (OVCAR-3 ovarian): 15.4 µM | TGI (OVCAR-3 ovarian): 29 µM | GI50 (CAKI-1 renal): 15.2 µM | TGI (CAKI-1 renal): 28.5 µM | GI50 (SR leukemia): 15.6 µM | TGI (SR leukemia): 40.6 µM | GI50 (HT29 colon): 16.7 µM | TGI (HT29 colon): 33.8 µM | GI50 (M14 melanoma): 17.7 µM | TGI (M14 melanoma): 32.1 µM | GI50 (BT-549 breast): 15.6 µM | TGI (BT-549 breast): 30.1 µM | GI50 (MCF7 breast): 4.29 µM | TGI (MCF7 breast): 18.7 µM | GI50 (HCT-15 colon): 16.2 µM | TGI (HCT-15 colon): 32.2 µM | GI50 (A498 renal): 11.8 µM | TGI (A498 renal): 24.3 µM | GI50 (SN12C renal): 15.9 µM | TGI (SN12C renal): 34.4 µM | GI50 (K-562 leukemia): 20.4 µM | TGI (K-562 leukemia): 68.3 µM | GI50 (SK-MEL-5 melanoma): 17.2 µM | TGI (SK-MEL-5 melanoma): 31.8 µM | GI50 (SK-OV-3 ovarian): 19.9 µM | TGI (SK-OV-3 ovarian): 45.2 µM | GI50 (T-47D breast): 10.3 µM | TGI (T-47D breast): 25.7 µM | GI50 (EKVX NSCLC): 15.8 µM | TGI (EKVX NSCLC): 29.2 µM | GI50 (DU-145 prostate): 4.3 µM | TGI (DU-145 prostate): 14.8 µM | GI50 (SNB-75 CNS): 11.8 µM | TGI (SNB-75 CNS): 24 µM | GI50 (SNB-19 CNS): 16.2 µM | TGI (SNB-19 CNS): 31.6 µM | GI50 (MDA-MB-231 breast): 17.6 µM | TGI (MDA-MB-231 breast): 34.4 µM | GI50 (RXF 393 renal): 14.4 µM | TGI (RXF 393 renal): 27.6 µM | GI50 (TK-10 renal): 15.4 µM | TGI (TK-10 renal): 29.7 µM | GI50 (RPMI-8226 leukemia): 20.5 µM | TGI (RPMI-8226 leukemia): 55 µM | GI50 (OVCAR-4 ovarian): 15.4 µM | TGI (OVCAR-4 ovarian): 29 µM | GI50 (MALME-3M melanoma): 18.2 µM | TGI (MALME-3M melanoma): 33.1 µM | GI50 (HOP-92 NSCLC): 8.62 µM | TGI (HOP-92 NSCLC): 22.1 µM | GI50 (CCRF-CEM leukemia): 19.1 µM | TGI (CCRF-CEM leukemia): 45.6 µM | GI50 (UO-31 renal): 14.1 µM | TGI (UO-31 renal): 27.1 µM | GI50 (NCI-H460 lung): 14 µM | TGI (NCI-H460 lung): 30 µM | GI50 (A549 NSCLC): 17.1 µM | TGI (A549 NSCLC): 33.5 µM | GI50 (SW-620 colon): 18.4 µM | TGI (SW-620 colon): 35.8 µM | GI50 (KM12 colon): 17.3 µM | TGI (KM12 colon): 32.6 µM | GI50 (HCT-116 colon): 16.3 µM | TGI (HCT-116 colon): 29.8 µM | GI50 (U251 CNS): 16.6 µM | TGI (U251 CNS): 30.2 µM | GI50 (MOLT-4 leukemia): 17.5 µM | TGI (MOLT-4 leukemia): 39.7 µM | GI50 (PC-3 prostate): 17.1 µM | TGI (PC-3 prostate): 35.6 µM | GI50 (IGROV1 ovarian): 15.4 µM | TGI (IGROV1 ovarian): 33.5 µM | GI50 (HOP-62 NSCLC): 17 µM | TGI (HOP-62 NSCLC): 32.9 µM | GI50 (SK-MEL-28 melanoma): 15.2 µM | TGI (SK-MEL-28 melanoma): 28.9 µM | GI50 (COLO 205 colon): 19.1 µM | TGI (COLO 205 colon): 37.7 µM
